The results in this text go back to US10532980B2, “N-methyl pyrazoles” (Prosetta Antiviral, Inc., priority 2015, dated 2020).

The experiment concerns Influenza A virus (A/WSN/1933(H1N1)). Description: microbe, parasite or virus in culture. The format is cell-based. The settings on record: MDCK, 24 h with compound, then 2 h drug-free medium.
Take `Cc1c(F)cccc1CNC(=O)c1cc(C2CC2)nn1C` [Compound 19, 3-cyclopropyl-N-(3-fluoro-2-methylbenzyl)-1-methyl-1H-pyrazole-5-carboxamide]: the EC90 came out at 1500 nM.

In the case of `COc1c(CNC(=O)c2cc(C(C)C)nn2C)cccc1C(F)(F)F` [Compound 25, 3-isopropyl-N-(2-methoxy-3-(trifluoromethyl)benzyl)-1-methyl-1H-pyrazole-5-carboxamide], the EC90 came to 400 nM.

On to `COc1cccc(CNC(=O)c2cc(C3CC3)nn2C)c1C(F)(F)F` [Compound 30, 3-cyclopropyl-N-(3-methoxy-2-(trifluoromethyl)benzyl)-1-methyl-1H-pyrazole-5-carboxamide], for which the EC90 is 300 nM.

With `COc1ccc(F)c(CNC(=O)c2cc(C(C)(C)C)nn2C)c1OC` [Compound 46, 3-(tert-butyl)-N-(6-fluoro-2,3-dimethoxybenzyl)-1-methyl-1H-pyrazole-5-carboxamide], the EC90 was 1000 nM.

For orientation: EC90 means the concentration needed for an effect of 90%.
